The results in this text go back to patent publication US20040192777A1, “Novel anticancer diterpene compounds, process and uses thereof” (COUNCIL OF SCIENTIFIC AND INDUSTRIAL, priority 2003, published 2004).

What all share (type): cell-based
For assay [1], the system named is human lung cancer cells (A-549). Kind of assay: In vitro cytotoxicity (SRB) against A-549. To be noted: A-549 Lung; for Growth inhibition, %: 48 h. Here is the method: (§1) The human cancer cell lines were obtained either from National center for cell science, Pune, India or National Cancer Institute, Frederick, MD, U.S.A. Cells were grown in tissue culture flasks in complete growth medium (RPMI-1640 medium with 2 mM glutamine, 100 μg/ml streptomycin, pH 7.4, sterilized by filtration and supplemented with 10% sterilized fetal calf serum and 100 units/ml penicillin before use) at 37° C. in an atmosphere of 5% CO2 and 90% relative humidity in a carbon dioxide incubator. The cells at subconfluent stage were harvested from the flask by treatment with trypsin (0.05% trypsin in PBS containing 0.02% EDTA) and suspended in complete growth medium. Cells with cell viability of more than 97% by trypan blue exclusion technique were used for determination of cytotoxicity.
(§2) Compound 1 was dissolved in DMSO (dimethyl sulphoxide) to obtain a stock solution of 20 mg/ml. The stock solution was serially diluted with complete growth medium containing 50 μg/ml of gentamycin to obtain three working test solutions of 200, 60 and 20 μg/ml.
(§3) The suspension of human cancer cell lines of required cell density in complete growth medium was prepared and cell suspension of each cell line was placed in 96-well tissue culture plate (100 μl per well) for control, Compound 1 and positive control(s). The blank wells for each cell line and concentration of test material were also included that contained equivalent amount of complete growth medium only. The plates were incubated at 37° C. in an atmosphere of 5% CO2 and 90% relative humidity in a carbon dioxide incubator. The experiment was carried out in triplicate.
(§4) After 24-hours of incubation, the working solutions of Compound 1 of different concentrations (100 μl) were added in the experimental wells and blanks whereas positive controls of required concentrations (100 μl) were added into wells for positive controls. The equivalent amount of complete growth medium was added to control set.
(§5) The plates were further incubated for 48-hours (at 37° C. in an atmosphere of 5% CO2 and 90% relative humidity in a carbon dioxide incubator) after addition of test material etc. and then the cell growth was stopped by gently layering of 50 μl of TCA (50% trichloroacetic acid) on top of the medium in all the wells. The plates were incubated at 4° C. for one hour to fix the cells attached to the bottom of the wells. Liquids of all the wells were gently pipetted out and discarded. The plates were washed five times with distilled water to remove TCA, growth medium, low molecular weight metabolites, serum proteins etc. Plates were air dried.
(§6) Cell growth was measured by staining with sulforhodamine B dye (SRB). The SRB solution (100 μl of 0.4% SRB in 1% acetic acid) was added to each well and the plates were incubated at room temperature for 30 minutes. The unbound SRB was quickly removed by washing the wells five times with 1% acetic acid and plates were air dried. Tris-buffer (100 μl of 0.01M, pH 10.4) was added to all the wells and plates were gently stirred for 5 minutes on a mechanical stirrer. The optical density was recorded on ELISA reader at 540 nm.
(§7) The cell growth in presence of test material was determined by subtracting mean OD value of respective blank from the mean OD value of experimental set. Like wise, cell growth in absence of test material (control set) and in presence of positive control was also determined. The per cent cell growth in presence of test material was determined considering the cell growth in absence of test material as 100% and in turn per cent inhibition was calculated.
(§8) The human cancer cell lines were grown, harvested and cytotoxicity was determined exactly as mentioned in Example 3 except that the test material used was Compound 2 that was dissolved in DMSO and three working test solutions were prepared of the same concentrations as in Example 3.

Assay [2] deals with human liver cancer cells (Hep-2). Description: In vitro cytotoxicity (SRB) against Hep-2. To be noted: Hep-2 Liver. Here is the method: The human cancer cell lines were obtained either from National center for cell science, Pune, India or National Cancer Institute, Frederick, MD, U.S.A. […] Cells with cell viability of more than 97% by trypan blue exclusion technique were used for determination of cytotoxicity. Compound 1 was dissolved in DMSO (dimethyl sulphoxide) to obtain a stock solution of 20 mg/ml. […] The blank wells for each cell line and concentration of test material were also included that contained equivalent amount of complete growth medium only. The plates were incubated at 37° C. in an atmosphere of 5% CO2 and 90% relative humidity in a carbon dioxide incubator. The experiment was carried out in triplicate. […] The equivalent amount of complete growth medium was added to control set. […] The plates were incubated at 4° C. for one hour to fix the cells attached to the bottom of the wells. Liquids of all the wells were gently pipetted out and discarded. The plates were washed five times with distilled water to remove TCA, growth medium, low molecular weight metabolites, serum proteins etc. Plates were air dried. Cell growth was measured by staining with sulforhodamine B dye (SRB). […] The optical density was recorded on ELISA reader at 540 nm. The cell growth in presence of test material was determined by subtracting mean OD value of respective blank from the mean OD value of experimental set. Like wise, cell growth in absence of test material (control set) and in presence of positive control was also determined. […] The human cancer cell lines were grown, harvested and cytotoxicity was determined exactly as mentioned in Example 3 except that the test material used was Compound 2 that was dissolved in DMSO and three working test solutions were prepared of the same concentrations as in Example 3.

Assay [3] concerns human ovary cancer cells (OVCAR-5). Kind of assay: In vitro cytotoxicity (SRB) against OVCAR-5. The settings on record: OVCAR-5 Ovary; for Growth inhibition, %: 48 h. The protocol: as §1, §2, §3, §4, §5, §6, §7, §8
For assay [4], the system named is human CNS cancer cells (SK-N-MC). Kind of assay: In vitro cytotoxicity (SRB) against SK-N-MC. To be noted: 48 h. Here is the method:
as §1, §2, §3, §4, §5, §6, §7, §8

In assay [5] the test system is human colon cancer cells (HT-29). Description: In vitro cytotoxicity (SRB) against HT-29. To be noted: HT-29 Colon. The protocol:
as §1, §2, §3, §4, §5, §6, §7, §8

Assay [6] concerns human prostate cancer cell line PC-3. Description: In vitro cytotoxicity (SRB) against PC-3. The settings on record: PC-3 Prostate. The protocol:
as §1, §2, §3, §4, §5, §6, §7, §8

Assay [7] has as its system human cervix cancer cell line (SiHa). Description: In vitro cytotoxicity (SRB) against SiHa. Here is the method:
as §1, §2, §3, §4, §5, §6, §7, §8

Assay [8] relates to human lung cancer cell line HOP-62. Kind of assay: In vitro cytotoxicity (SRB) against HOP-62. The settings on record: HOP-62 Lung; for Growth inhibition, %: 48 h. Here is the method: as §1, §2, §3, §4, §5, §6, §7, §8
Another assay deals with human cancer cell lines. Kind of assay: In vitro cytotoxicity (SRB), span over the cell line panel. To be noted: at 100 μg/ml, all human cancer cell lines studied except HOP-62. The protocol:
as §1, with “cytotoxicity. […]” for “cytotoxicity.”
Cell growth was measured by staining with sulforhodamine B dye (SRB). […] The optical density was recorded on ELISA reader at 540 nm.
The cell growth in presence of test material was determined by subtracting mean OD value of respective blank from the mean OD value of experimental set. Like wise, cell growth in absence of test material (control set) and in presence of positive control was also determined. The per cent cell growth in presence of test material was determined considering the cell growth in absence of test material as 100% and in turn per cent inhibition was calculated. […]

Where [9] appears, read: Homo sapiens, 1 × 10^−4M, positive control, read-out: Growth inhibition, %.
Where [10] appears, read: Homo sapiens, 1 × 10^−5M, positive control, read-out: Growth inhibition, %.

The structures appear in SMILES notation.

By inhibition is commonly meant how much of the control response was suppressed.

As for `C=C[C@]1(C)C=C2CCC3[C@@](C)(CCC[C@@]3(C)C(=O)O)C2CC1` (stereo partly drawn) [Compound 1, ent-pimmarane 8(14),15-diene-19 oic acid], the “Growth inhibition, %” value is 13% in assay [1] (10 μg/ml); 72% in assay [1] (30 μg/ml); 94% in assay [1] (100 μg/ml); 20% in [2] (10 μg/ml, 48 h); 68% in [2] (30 μg/ml, 48 h); 80% in assay [2] (100 μg/ml, 48 h). In addition, the “Growth inhibition, %” value in [3] (10 μg/ml) came to 00%; in assay [3] (30 μg/ml), 66%; in assay [3] (100 μg/ml), 76%; in assay [4] (10 μg/ml), 00%; in assay [4] (30 μg/ml), 75%; in assay [4] (100 μg/ml), 88%. Moreover, the “Growth inhibition, %” value is reported as 02% in assay [5] (10 μg/ml, 48 h); 70% in assay [5] (30 μg/ml, 48 h); 94% in assay [5] (100 μg/ml, 48 h); 05% in assay [6] (10 μg/ml, 48 h); 78% in assay [6] (30 μg/ml, 48 h); 97% in assay [6] (100 μg/ml, 48 h). Also, the “Growth inhibition, %” value is 00% in assay [7] (10 μg/ml, 48 h); 14% in assay [7] (30 μg/ml, 48 h); 41% in assay [7] (100 μg/ml, 48 h); 00% in assay [8] (10 μg/ml); 00% in assay [8] (30 μg/ml); 03% in [8] (100 μg/ml). In addition, the “inhibition of cell growth, span over the cell lines” value in the assay on human cancer cell lines is on record as 41-97%.

Regarding `C=CC1(C)CC=C2C(=CCC3C(C)(C(=O)O)CCCC23C)C1` (stereo not drawn) [Compound 2, ent-pimmarane 7(8),9(11),15 triene-19 oic acid], the “Growth inhibition, %” value in [1] (10 μg/ml) amounted to 09%; in [1] (30 μg/ml), 71%; in assay [1] (100 μg/ml), 97%; in assay [2] (10 μg/ml, 48 h) it was 18%; in assay [2] (30 μg/ml, 48 h), 70%; in assay [2] (100 μg/ml, 48 h) it was 91%. Also, the “Growth inhibition, %” value in [3] (10 μg/ml) stood at 12%; in [3] (30 μg/ml), 67%; in [3] (100 μg/ml) it was 96%; in [4] (10 μg/ml), 22%; in assay [4] (30 μg/ml) it was 85%; in [4] (100 μg/ml) it was 92%. The “Growth inhibition, %” value in [5] (10 μg/ml, 48 h) amounted to 00%; in assay [5] (30 μg/ml, 48 h) it was 70%; in [5] (100 μg/ml, 48 h) it was 95%; in [6] (10 μg/ml, 48 h), 00%; in [6] (30 μg/ml, 48 h), 83%; in assay [6] (100 μg/ml, 48 h), 94%. For the same compound, the “Growth inhibition, %” value in assay [7] (10 μg/ml, 48 h) stood at 00%; in [7] (30 μg/ml, 48 h) it was 8%; in assay [7] (100 μg/ml, 48 h), 38%; in assay [8] (10 μg/ml) it was 00%; in assay [8] (30 μg/ml), 00%; in assay [8] (100 μg/ml) it was 00%. The “inhibition of cell growth, span over the cell lines” value in the assay on human cancer cell lines was 38-97%.

On to `O=c1[nH]cc(F)c(=O)[nH]1` [Compound 5FU, reference compound], for which the “Growth inhibition, %” value in assay [5] (1 × 10^−4M, positive control) amounted to 43%; in [7] (1 × 10^−4M, positive control), 17%.

`CO[C@@]12[C@H](COC(N)=O)C3=C(C(=O)C(C)=C(N)C3=O)N1C[C@@H]1N[C@@H]12` [Mytomycin C, reference compound]: the “Growth inhibition, %” value in assay [2] (1 × 10^−5M, positive control) was 87%; in assay [6] (1 × 10^−5M, positive control), 78%.

With `CC/C(=C(\c1ccccc1)c1ccc(OCCN(C)C)cc1)c1ccccc1` [Tamoxifen, reference compound], the inhibition at 100 µM in [1] (Homo sapiens, A549, 1 × 10^−4M, positive control, read-out: Growth inhibition, %) was determined as 98%; in [3] (setting [9]), 100%; in [8] (setting [9]) it was 20%. Besides, the inhibition at 10 µM in [1] (Homo sapiens, A549, 1 × 10^−5M, positive control, read-out: Growth inhibition, %) worked out at 19%; in assay [3] (setting [10]), 0%; in assay [8] (setting [10]), 2%.
